# Measurements reported in article PMC8639922, “KSHV transactivator-derived small peptide traps coactivators to attenuate MYC and inhibits leukemia and lymphoma cell growth” (Communications Biology, 2021).
# Square brackets hold non-standard residues; d marks the D form. Peptide text beside a SMILES is read from it. Orn = NCCC[C@H](N)C(=O)O; βAla = NCCC(=O)O
# Columns and labels:
# MYC expression in BC-1 = assay: MYC qRT-PCR; assay type: cell-based, human; settings: BC-1, 24 μM, 24 h
# Experimental: (§1) As a next step, we sought to identify the cellular pathways that are impacted by VGN50. For this, RNA-seq analysis was conducted on total RNA isolated from cells harvested after 24 h of incubation with VGN50. Mutant peptide was used as a comparison to identify differentially regulated genes by VGN50 (Fig. 4a). […] Furthermore, we confirmed the result by RT-qPCR that the expression of MYC itself was decreased in both BCBL-1 and BC-1 cells after treatment with VGN50, but not mutant peptide (Fig. 4c).
# (§2) Fig. 4 VGN50 target identification with RNA-sequencing. a Total RNA-sequencing. BCBL-1 cells were treated with either VGN50 or mutant peptide for 24 h (24 μM, n = 3). Untreated cells were used as a negative control. RNA-sequencing datasets from VGN50-peptide-treated samples were compared with that from mutant-peptide-treated samples, and differentially regulated genes were depicted as a volcano plot (left panel). b Gene Set Enrichment Analyses (GSEA). […] Peptide-treated samples were used for qRT-PCR analysis in duplicate and confirmed MYC down-regulation. (VGN50, 24 μM, 24 h post treatment) d Direct target identification with SLAM-seq. The experimental scheme is shown in the upper section of the panel. VGN50 or mutant peptide (24 μM final concentration) were added to BC-1 or BCBL-1 cells 30 mins prior to incubation with 4sU, and RNA was labeled for 1 h in the presence of each peptide. The C/T converted RNA-species were compared with mock-treated samples and depicted as scatter plots. Each treatment was performed in duplicate and nascent transcripts with p-values <0.05 are indicated as red dots. e Integrative Genomics Viewer (IGV). Both non-T/C converted and converted sequence reads were visualized with the IGV, and a snapshot of the MYC 3′-UTR region is presented. […] The strategy of gene selection for CSAN is described on the left-hand side of the panel. […] The number of common transcriptional regulators are shown in the Venn diagram and selected transcription and co-regulatory protein names are also included. The complete list of gene names is presented in Supplementary Fig. 3.
# MYC expression in BCBL-1 = assay: MYC qRT-PCR; assay type: cell-based, human; settings: BCBL-1, 24 μM, 24 h
# Experimental: as §1, §2
smiles,measurement,setting,value
CC(C)C[C@H](NC(=O)CCNC(=O)[C@H](CCCNC(=N)N)NC(=O)[C@H](CCCNC(=N)N)NC(=O)[C@H](CCCNC(=N)N)NC(=O)[C@H](CCCN)NC(=O)[C@H](CCCNC(=N)N)NC(=O)[C@H](CCCNC(=N)N)NC(=O)[C@H](CCCCN)NC(=O)[C@H](CCCCN)NC(=O)[C@H](N)CCCNC(=N)N)C(=O)N[C@@H](CO)C(=O)N[C@@H](CO)C(=O)N[C@@H](C)C(=O)N[C@@H](C)C(=O)N[C@@H](C)C(=O)NCC(=O)N[C@@H](CC(C)C)C(=O)N[C@@H](Cc1ccc(O)cc1)C(=O)N[C@@H](CCC(N)=O)C(=O)N[C@@H](CC(C)C)C(=O)N[C@@H](CC(=O)O)C(=O)N[C@H](C(=O)O)[C@@H](C)O [Mt-P] (H-[dR]KKRR[Orn]RRR[βAla]LSSAAAGLYQLDT-OH; N-terminus and C-terminus assumed),C-myc 2^-(DCT),MYC expression in BC-1; replicate 1,9.403e-5
same,C-myc 2^-(DCT),MYC expression in BC-1; replicate 2,9.337e-5
same,C-myc 2^-(DCT),MYC expression in BCBL-1; replicate 1,9.038e-5
same,C-myc 2^-(DCT),MYC expression in BCBL-1; replicate 2,8.988e-5
